Data as given in the NIST ThermoML archive (doi:10.1016/j.tca.2015.01.022).

Assay: molar heat capacity at constant pressure
Conditions: 101.33 kPa, Glass, Small (less than 1 g) adiabatic calorimetry

CCCCn1cc[n+](C)c1.F[B-](F)(F)F [1-butyl-3-methylimidazolium tetrafluoroborate]
Conditions | molar heat capacity at constant pressure [J/K/mol]
5 K | 1.47
5.16 K | 1.62
5.39 K | 1.822
5.67 K | 2.094
5.96 K | 2.397
6.28 K | 2.762
6.64 K | 3.192
7 K | 3.657
7.36 K | 4.172
7.73 K | 4.709
8.11 K | 5.283
8.49 K | 5.896
8.87 K | 6.54
9.26 K | 7.211
9.64 K | 7.915
10 K | 8.59
10.03 K | 8.641
10.52 K | 9.597
11.13 K | 10.83
11.75 K | 12.13
12.36 K | 13.44
12.97 K | 14.81
13.59 K | 16.22
14.22 K | 17.7
14.85 K | 19.2
15 K | 19.58
15.58 K | 20.98
16.44 K | 23.16
17.29 K | 25.28
18.15 K | 27.41
19.01 K | 29.55
19.88 K | 31.75
20 K | 32.08
21.08 K | 34.8
22.63 K | 38.75
24.2 K | 42.72
25 K | 44.7
25.76 K | 46.64
27.21 K | 50.17
28.7 K | 53.74
30 K | 56.8
30.28 K | 57.41
32.02 K | 61.38
33.93 K | 65.51
35 K | 67.76
35.84 K | 69.47
37.75 K | 73.26
39.66 K | 76.94
40 K | 77.68
41.67 K | 80.75
43.78 K | 84.66
45 K | 86.86
45.89 K | 88.43
48 K | 92.13
50 K | 95.33
50.12 K | 95.61
52.24 K | 99
54.36 K | 102.2
56.48 K | 105.3
58.61 K | 108.4
60 K | 110.5
60.75 K | 111.5
62.88 K | 114.5
65.01 K | 117.4
67.14 K | 120.3
69.28 K | 123.1
70 K | 124.2
71.52 K | 126
73.86 K | 129.1
76.21 K | 132.1
78.57 K | 135.1
78.59 K | 135
80 K | 136.7
80.92 K | 137.8
81.08 K | 138.2
83.28 K | 140.7
83.48 K | 140.7
85.56 K | 143.1
85.91 K | 143.3
88.1 K | 145.9
88.36 K | 146.1
90 K | 148.1
90.56 K | 148.7
90.83 K | 148.8
93.04 K | 151.5
93.31 K | 151.6
95.54 K | 154.3
95.81 K | 154.3
98.06 K | 156.9
98.33 K | 156.9
100 K | 158.7
100.58 K | 159.4
100.87 K | 159.6
103.12 K | 162
103.41 K | 162.3
105.68 K | 164.7
105.97 K | 164.9
108.24 K | 167.2
108.53 K | 167.4
110 K | 169
110.81 K | 169.8
111.11 K | 170.1
113.39 K | 172.7
113.69 K | 172.7
115.97 K | 175.1
116.27 K | 175.4
118.56 K | 177.8
118.87 K | 178
120 K | 179.2
121.16 K | 180.5
121.47 K | 180.7
123.76 K | 183.1
124.08 K | 183.2
126.37 K | 185.5
126.68 K | 185.8
128.98 K | 188.1
129.3 K | 188.4
130 K | 189.1
131.59 K | 190.7
131.91 K | 191
133.42 K | 192.4
134.2 K | 193.3
134.53 K | 193.6
136.1 K | 195
136.82 K | 195.9
137.15 K | 196.2
138.71 K | 197.7
139.43 K | 198.3
139.77 K | 198.7
140 K | 198.9
141.33 K | 200.2
142.05 K | 201.1
142.38 K | 201.3
143.94 K | 202.8
144.67 K | 203.6
145 K | 203.9
146.55 K | 205.4
147.29 K | 206.3
